Test results taken from ChEMBL document CHEMBL1130895, “Syntheses of 2-[(3,5-dimethyl-4-methoxypyridyl)alkyl]-benzothiazolidine derivatives as a potential gastric H+/K(+)-ATPase inhibitor” (Bioorg Med Chem Lett, 1998).

Legend:
[1] = target: Potassium-transporting ATPase (Homo sapiens) (UniProt P20648+P51164); assay: Inhibition of H+/K+ ATPase activity in buffered solution (pH 7.4) at concentration […]; format: protein-complex assay
[2] = target: Potassium-transporting ATPase (Homo sapiens, UniProt P20648); assay: Inhibition of H+/K+ ATPase activity in buffered solution (pH 7.4); format: protein-complex assay

| SMILES | inhibition [1] | IC50 [2] |
| --- | --- | --- |
| COc1c(C)cnc(CCC2(C)Nc3cc(Cl)ccc3S2)c1C (stereo not given) | 20% | > 100 µM |
| COc1c(C)cnc(CCC2(C)Nc3ccccc3S2)c1C (stereo not given) | 96.4% | 98 µM |
| CC1(CCc2ccccn2)Nc2ccccc2S1 (stereo not given) | 0% | – |
| CCOC(=O)[C@@H]1CSC(CCc2ncc(C)c(OC)c2C)N1 (stereo not given in full) | 19.8% | – |
| COc1c(C)cnc(CCCC2(C)Nc3ccccc3S2)c1C (stereo not given) | 0% | – |
| COc1c(C)cnc(CCC2Nc3ccccc3S2)c1C (stereo not given) | 24.6% | – |
| COc1c(C)cnc(CCC2(C)Nc3cc(C(F)(F)F)ccc3S2)c1C (stereo not given) | 84.4% | 24 µM |
| COc1c(C)cnc(C2Nc3ccccc3S2)c1C (stereo not given) | 0% | – |
| COc1c(C)cnc(CCC2(C)Nc3ccc(Cl)cc3S2)c1C (stereo not given) | 0% | – |
| COc1c(C)cnc(CC2Nc3ccccc3S2)c1C (stereo not given) | 58.5% | – |
| COc1ccc2[nH]c([S+]([O-])Cc3ncc(C)c(OC)c3C)nc2c1 (stereo not given) | 95% | – |
| COc1c(C)cnc(/C=C/C2(C)Nc3ccccc3S2)c1C (stereo not given) | 61.1% | > 100 µM |
| COc1c(C)cnc(CCC2(C)Nc3cc(F)ccc3S2)c1C (stereo not given) | 81% | 33 µM |
| COc1c(C)cnc(CCC2(C)Sc3ccccc3N2C)c1C (stereo not given) | 17% | – |
| COc1c(C)cnc(CCC2(C)Nc3cc(C)ccc3S2)c1C (stereo not given) | 0% | – |
